The numbers were not newly measured in patent US7749527B2, “Gel compositions for control of ecto-parasites” (Wyeth LLC, priority 2005, dated 2010), which cites them from elsewhere.

The structures appear in SMILES notation.

This data set has as its system fleas and ticks. Particulars: companion animals.

For the compound `N#Cc1ccc(CC(=NNC(=O)Nc2ccc(OC(F)(F)F)cc2)c2cccc(C(F)(F)F)c2)cc1` [Metaflumizone, (E Z)-2-[2-(4-cyanophenyl)-1-[3-(trifluoromethyl)phenyl]ethylidene]-N-[4-(trifluoromethoxy)phenyl]hydrazinecarboxamide], the “protection from fleas and ticks” value is 4-6 weeks.
